Source: PubChem BioAssay (NCI)
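A five-concentration, 48-hour dose response in 96-well plates underlies each endpoint, interpolated linearly between surrounding concentrations. GI50 = concentration required for 50% inhibition of growth. TGI is the concentration that stops growth completely.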

What was measured:
Test in all cases: DTP human tumour cell line panel, 48 h
[1] = tested on: M19-MEL melanoma
[2] = tested on: SK-MEL-5 melanoma
[3] = tested on: UACC-257 melanoma
[4] = tested on: EKVX NSCLC
[5] = tested on: RPMI-8226 leukemia
[6] = tested on: OVCAR-3 ovarian
[7] = tested on: ACHN renal
[8] = tested on: SN12C renal
[9] = tested on: CCRF-CEM leukemia
[10] = tested on: IGROV1 ovarian
[11] = tested on: OVCAR-8 ovarian
[12] = tested on: HT29 colon
[13] = tested on: HCT-15 colon
[14] = tested on: SW-620 colon
[15] = tested on: 786-0 renal
[16] = tested on: HCC-2998 colon
[17] = tested on: SK-OV-3 ovarian
[18] = tested on: M14 melanoma
[19] = tested on: NCI-H522 lung
[20] = tested on: NCI-H23 lung
[21] = tested on: LXFL 529 NSCLC
[22] = tested on: K-562 leukemia
[23] = tested on: SNB-19 CNS
[24] = tested on: LOX IMVI melanoma
[25] = tested on: SK-MEL-2 melanoma
[26] = tested on: OVCAR-5 ovarian
[27] = tested on: SF-295 CNS
[28] = tested on: UO-31 renal
[29] = tested on: A549 NSCLC
[30] = tested on: KM12 colon
[31] = tested on: UACC-62 melanoma
[32] = tested on: TK-10 renal
[33] = tested on: NCI-H226 lung
[34] = tested on: OVCAR-4 ovarian
[35] = tested on: COLO 205 colon
[36] = tested on: DLD-1 colon
[37] = tested on: SNB-75 CNS
[38] = tested on: MALME-3M melanoma
[39] = tested on: CAKI-1 renal
[40] = tested on: HOP-62 NSCLC
[41] = tested on: SF-539 CNS
[42] = tested on: KM20L2 colon
[43] = tested on: HL-60(TB) leukemia
[44] = tested on: HOP-18 NSCLC
[45] = tested on: HCT-116 colon
[46] = tested on: SF-268 CNS
[47] = tested on: MOLT-4 leukemia
[48] = tested on: A498 renal
[49] = tested on: SK-MEL-28 melanoma

Structure (SMILES): CC(=O)[CH-]C(=O)c1ccccc1.CC(=O)[CH-]C(=O)c1ccccc1.Cl.[O-]CCc1ccccn1.[O-]CCc1ccccn1.[Ti+4]
- GI50 [1]: 25.4 µM
- TGI [1]: 75.3 µM
- GI50 [2]: 20 µM
- TGI [2]: 53.6 µM
- GI50 [3]: 28.3 µM
- TGI [3]: > 100 µM
- GI50 [4]: 28.9 µM
- TGI [4]: 78.2 µM
- GI50 [5]: 15.8 µM
- TGI [5]: 58.4 µM
- GI50 [6]: 32.3 µM
- TGI [6]: > 100 µM
- GI50 [7]: 33.4 µM
- TGI [7]: > 100 µM
- GI50 [8]: 36.1 µM
- TGI [8]: > 100 µM
- GI50 [9]: 15.9 µM
- TGI [9]: > 100 µM
- GI50 [10]: 27.2 µM
- TGI [10]: 75.3 µM
- GI50 [11]: 30.1 µM
- TGI [11]: > 100 µM
- GI50 [12]: 22.4 µM
- TGI [12]: 77.1 µM
- GI50 [13]: 46.2 µM
- TGI [13]: > 100 µM
- GI50 [14]: 29.5 µM
- TGI [14]: > 100 µM
- GI50 [15]: 21.2 µM
- TGI [15]: 57 µM
- GI50 [16]: 26.9 µM
- TGI [16]: 83.6 µM
- GI50 [17]: 39.5 µM
- TGI [17]: > 100 µM
- GI50 [18]: 22 µM
- TGI [18]: 70.5 µM
- GI50 [19]: 27.8 µM
- TGI [19]: 70.6 µM
- GI50 [20]: 24.7 µM
- TGI [20]: 53.8 µM
- GI50 [21]: 15.6 µM
- TGI [21]: 38 µM
- GI50 [22]: 21 µM
- TGI [22]: > 100 µM
- GI50 [23]: 19.6 µM
- TGI [23]: 49 µM
- GI50 [24]: 25.6 µM
- TGI [24]: > 100 µM
- GI50 [25]: 19.2 µM
- TGI [25]: 38.9 µM
- GI50 [26]: 43.3 µM
- TGI [26]: > 100 µM
- GI50 [27]: 25.6 µM
- TGI [27]: > 100 µM
- GI50 [28]: 17.4 µM
- TGI [28]: 47.4 µM
- GI50 [29]: 27.8 µM
- TGI [29]: 95.9 µM
- GI50 [30]: 41.4 µM
- TGI [30]: > 100 µM
- GI50 [31]: 23.6 µM
- TGI [31]: > 100 µM
- GI50 [32]: 28.7 µM
- TGI [32]: 93.3 µM
- GI50 [33]: 18.7 µM
- TGI [33]: 78.3 µM
- GI50 [34]: 41.4 µM
- TGI [34]: > 100 µM
- GI50 [35]: 29.3 µM
- TGI [35]: 72.2 µM
- GI50 [36]: 30.4 µM
- TGI [36]: > 100 µM
- GI50 [37]: 23.9 µM
- TGI [37]: 89.2 µM
- GI50 [38]: 18.7 µM
- TGI [38]: 44.1 µM
- GI50 [39]: 44.1 µM
- TGI [39]: > 100 µM
- GI50 [40]: 23.6 µM
- TGI [40]: 47.7 µM
- GI50 [41]: 29.8 µM
- TGI [41]: 88 µM
- GI50 [42]: 36.2 µM
- TGI [42]: > 100 µM
- GI50 [43]: 21.2 µM
- TGI [43]: 93.5 µM
- GI50 [44]: 36.2 µM
- TGI [44]: 94.8 µM
- GI50 [45]: 18.9 µM
- TGI [45]: 55.6 µM
- GI50 [46]: 25.8 µM
- TGI [46]: 75.4 µM
- GI50 [47]: 13.3 µM
- TGI [47]: 49.3 µM
- GI50 [48]: 28.8 µM
- TGI [48]: 75.1 µM
- GI50 [49]: 20.6 µM
- TGI [49]: 55.1 µM
